How the values were obtained:
[1] = tested on: human RL-251 tumor xenograft; experiment: Retention of 131I-CLR1404 by RL-251 tumor xenograft; format: in vivo, SCID mouse; conditions: FIG. 3
Excerpt: FIG. 3. Prolonged retention of ^131I-CLR1404 by human RL-251 tumor xenograft in SCID mouse.
CLR1404 is a PLE. Results obtained in a variety of tumor models indicate that CLR1404 is sequestered and selectively retained by cancer cells and cancer stem cells. […] CLR1404 localizes in both primary and metastatic lesions regardless of anatomic location including those found in lymph nodes. See Examples 3-8.

[2] = CLR1404 tumor selectivity across 60 tumor models; format: in vivo, rodent; conditions: athymic nude (Hsd:Athymic Nude-Foxn1nu or Crl:NU-Foxn1nu), tumor, intravenous; xenograft, orthotopic, transgenic and spontaneous rodent models; read-out: tumor models showing selective uptake and prolonged retention
Description: All described animal studies were performed according to animal protocols approved by the Institutional Animal Care and Use Committee. Female athymic nude mice (Hsd:Athymic Nude-Foxnlnu or Crl:NU-Foxnlnu, Charles River Laboratories) about 4 to 5 weeks of age, 16 to 18 g (n=6), were used for human tumor xenograft studies. Mice were anesthetized with isoflurane and injected subcutaneously with viable tumor cells in 100 μl of Dulbecco's PBS (or, for glioma cells, […] of PBS) into the right flank. Inoculum sizes were 1×10^6 (for renal, ovarian, glioma, pancreatic, prostate, and NSCLC models), […] (for colorectal and uterine models), or 3×10^6 (breast).
Radioiodinated ^124I-CLR1404 was tested in subcutaneous and orthotopic xenografts of 60 different spontaneous, transgenic, human, and rodent malignant cell lines and tumor types. […] Representative examples are of both human (FIG. 5A-5I) and rodent (FIG. 5J-M) tumors.

[3] = tested on: non-small cell lung carcinoma (NSCLC); experiment: Clinical imaging of advanced NSCLC patients with 131I-CLR1404; format: in vivo, human; conditions: two patients, injection of <1 mCi 131I-CLR1404, gamma imaging
Description: To date, two patients with advanced NSCLC were imaged after an injection of <1 mCi of ^131I-CLR1404. Blood and urine samples were collected at predetermined times, and gamma imaging performed at several time points following administration.
Materials and Methods: Following intravenous injection of iodine-131 labeled CLR1404 (1 mCi/20 μg), patients with advanced NSCLC where scanned at 3, 6, 24, 48, 96 h and at 7 and 11 days on a GE Maxxus dual Head SPECT scanner. Blood and urine samples were collected for pharmacokinetic analysis as well as clinical hematologic, renal, and hepatic bioanalysis.

PC-3 (Prostate) = experiment: Cell viability IC50, PC-3; format: cell-based
Description: The cell lines were then measured for cell viability and reported as IC50 for each treatment.

MDA-MB-468 cells [4] = experiment: Annexin V/PI flow cytometry, MDA-MB-468; format: cell-based; conditions: table title 72 hours, text: paclitaxel for 24 hours
Description: Debris was eliminated from this analysis.
MDA-MB-468 cells, were also treated with CLR conjugates (CLR1606 and CLR1607) for 72 hours and with geldanamycin (“GEL”) for 48 hours.
CLR conjugates appear to require a longer treatment period with cells to induce cell death.

MDA-MB-468 cells [5] = experiment: Annexin V/PI flow cytometry, MDA-MB-468; format: cell-based; conditions: 48 hrs

SMILES	time remaining in cancer cells [1]	number of tumor models with selective uptake [2]	tumor uptake and retention in the primary lung tumor [3]	IC50 (PC-3 (Prostate)) [nM]	Live (MDA-MB-468 cells [4]; MDA-MB-468, PTX 100 nM)	Live (MDA-MB-468 cells [4]; MDA-MB-468, PTX 1 uM)	Live (MDA-MB-468 cells [5]; MDA-MB-468, 100 nM)	Live (MDA-MB-468 cells [5]; MDA-MB-468, 1 uM)
C[N+](C)(C)CCOP(=O)([O-])OCCCCCCCCCCCCCCCCCCc1ccc(I)cc1 [CLR1404, 18-(p-Iodophenyl)octadecyl phosphocholine]	up to 20 days	> 55	significant tumor uptake and retention					
CC(=O)O[C@H]1C(=O)[C@@]2(C)[C@H]([C@H](OC(=O)c3ccccc3)[C@]3(O)C[C@H](OC(=O)[C@H](O)[C@@H](NC(=O)c4ccccc4)c4ccccc4)C(C)=C1C3(C)C)[C@]1(OC(C)=O)CO[C@@H]1C[C@@H]2O [Paclitaxel, paclitaxel, reference compound]				0.9	53.8 % of total cells	48.9 % of total cells	77.9 % of total cells	73.3 % of total cells

— US9480754B2, “Phospholipid ether analogs as cancer-targeting drug vehicles” (Cellectar Biosciences, Inc., priority 2014, dated 2016)
